In patent publication US7968526B2, “Antisense oligonucleotides directed to ribonucleotide reductase R2 and uses thereof in the treatment of cancer” (Lorus Therapeutics Inc., priority 2003, dated 2011):
“Also recorded” adds a separate entry of the source.

Assays:
[1] = system: A2058 human melanoma cells; assay: A2058 melanoma xenograft in CD-1 nude mice, combination with DTIC (1.6); type: in vivo, human cells in mice; conditions: SEQ ID NO:1 10 mg/kg i.v. every other day, DTIC 80 mg/kg i.v. days 6-10
Protocol: (§1) After 52 days the mice were sacrificed and the tumours weighed. […] Mitoxantrone was administered intravenously once at the beginning of the treatments at a dose of 2 mg/kg (FIG. 4A) or once a week for four weeks at a reduced dose of 0.8 mg/kg (FIG. 4B). All treatments were stopped at day 50 (FIG. 4A) or 48 (FIG. 4B), respectively. […] Mitoxantrone was administered intravenously once at the beginning of the treatments at a dose of 2 mg/kg (FIG. 5A) or once a week for four weeks at a reduced dose of 0.8 mg/kg (FIG. 5B). All treatments were stopped at day 42 (FIG. 5A) or 38 (FIG. 5B), respectively. […] A2058 is a metastatic melanoma cell line. […] All treatments were stopped at day 24. […] Taxol was administered intravenously once a week at a dose of 10 mg/kg for three (FIG. 7A) or four weeks (FIG. 7C). Doxorubicin was administered intravenously once a week at a dose of 5 mg/kg for first three weeks (FIG. 7A) or for two weeks (FIG. 7C). All treatments were stopped at day 33 (FIG. 7A) or at day 26 (FIG. 7C), respectively. […] In FIG. 7C, antitumour activities were estimated by the inhibition of tumour volume, which was measured with calipers. Each point represents mean tumour volume calculated from 10 animals per experimental group. […] Taxol was administered intravenously once a week for first three weeks and intraperitoneally once a week for next two weeks at a dose of 10 mg/kg. Cisplatin was administered intravenously once a week for first three weeks and intraperitoneally once a week for next two weeks at a dose of 4 mg/kg. All treatments were stopped at day 40. Antitumour activities were estimated by the inhibition of tumour volume, which was measured with caliper. Each point represents mean tumour volume calculated from 9 animals per experimental group.

[2] = system: SK-OV-3 human ovary adenocarcinoma cells; assay: SK-OV-3 ovary tumour xenograft in CD-1 nude mice, combination with taxol or cisplatin (1.8); type: in vivo, human cells in mice; conditions: SEQ ID NO:1 10 mg/kg i.v. every other day 17 times
Protocol: as §1

[3] = system: A498 human kidney cancer cells; assay: A498 kidney tumour growth in SCID mice (3.9); type: in vivo, human cells in mice
Protocol: Treatments lasted for 14 days thereafter. Antitumour activities were estimated by the inhibition of tumour volume, which was measured with a caliper on four different occasions over the treatment period. Each point represents mean tumour volume calculated from 5 animals per experimental group. […] Control animals (control) received saline alone for the same period. At the end of the treatments, the animals were sacrificed, tumours were excised and their weights were measured. Each bar represents mean tumour weight calculated from 6 animals per experimental group. […] Treatments lasted for 24 days thereafter. Antitumour activities were estimated by the inhibition of tumour volume, which was measured with a caliper at two-day intervals over the treatment period. Each point represents mean tumour volume calculated from 4 animals per experimental group. […] Treatments lasted for 24 days thereafter. Antitumour activities were estimated by the inhibition of tumour volume, which was measured with a caliper at two-day intervals over the treatment period. Each point represents mean tumour volume calculated from 4 animals per experimental group. […] Each point represents mean tumour volume calculated from 5 animals per experimental group. […] Antitumour activities were estimated by the inhibition of tumour volume, which was measured with a caliper on four different occasions over 16-day period. […]

[4] = Phase I study of SEQ ID NO:1 by continuous intravenous infusion in patients with advanced cancer: toxicity and response
Protocol: Pharmacokinetic parameters were assessed. SEQ ID NO:1 was administered using a portable infusion pump in cycles of 21 days CVI followed by one week of rest. […] Doses were doubled in cohorts of 1-3 patients until the appearance of Gr 1 toxicity, with subsequent escalation of 20-30% in cohorts of 3 patients. DLT was defined as Gr 4 neutropenia lasting 3 days or with fever; Gr 4 thrombocytopenia (T) or Gr 3 T with Gr 1 bleeding; or Gr 3 non-hematologic toxicity.

[5] = Cycle 1, 18.5 mg/m^2/day 21 day CVI, 2 patients
[6] = Cycle 1, 74 mg/m^2/day 21 day CVI, 1 patient
[7] = Cycle 1, 148 mg/m^2/day 21 day CVI, 6 patients
[8] = Cycle 1, 185 mg/m^2/day 21 day CVI, 9 patients
[9] = Cycle 1, 222 mg/m^2/day 21 day CVI, 7 patients

With “5′-GGCTAAATCGCTCCACCAAG-3′ (all phosphorothioate, sugars by position and methylation of C not given here) [SEQ ID NO: 1]” the “Tumour weight as % of saline control” value ([1]; A2058 (melanoma), CD-1) was 20%, the “Antitumour effect (tumour weight, FIG. 6)” value ([1]; A2058, CD-1 nude mice) was “significant delay of tumour growth compared to saline control; also recorded: superior to the inhibitory effects observed with DTIC alone” and the “tumour volume data as percentage of saline control” value ([2]; SK-OV-3 (ovary), CD-1, Taxol 10 mg/kg weekly, Cisplatin 4 mg/kg weekly) was 42%. For the same substance, the “Antitumour effect (tumour volume, FIG. 8)” value ([2]; SK-OV-3, CD-1 nude mice, taxol 10 mg/kg, cisplatin 4 mg/kg weekly) was “significant delay of tumour growth compared to saline control”, the “Inhibitory effect on tumour growth (tumour volume, FIG. 21B)” value ([3]; A498, SCID mice, 10 mg/kg i.v. every other day to day 52) was “powerful inhibitory effects on the growth of human renal carcinoma cells, resulting in total regression of the tumours” and the Tumour regression ([3]; Human Renal Carcinoma^2 (third entry of Table 5)) was “Complete regression of all tumours in treated”. The “DLT: Gr 3 fatigue” value ([4]; 148 mg/m^2/day) was 1/6, the “Tolerability at the recommended phase II dose” value ([4]; 185 mg/m^2/day) was “well tolerated by 11 patients” and the “DLT: Gr 4 transaminase elevation” value ([4]; 222 mg/m^2/day) was 2/6. The “recommended phase II dose” value ([4]; 21 days CVI followed by one week of rest) was 185 mg/m^2/day, the “maximum tolerated dose (MTD)” value ([4]; 21 days CVI followed by one week of rest, patients with advanced malignancies) was 222 mg/m^2/day and the “No. of Patients with Grade of Toxicity: Anorexia Grade 1” value (shortened to “No. of Patients … Anorexia Grade 1”) [4, 5] was 1. The “No. of Patients with Grade of Toxicity: Fatigue Grade 1” value (“No. of Patients … Fatigue Grade 1” for short) [4, 5] was 1, the “No. of Patients … Anorexia Grade 1” value [4, 6] was 1 and the “No. of Patients … Fatigue Grade 1” value [4, 6] was 1. The “No. of Patients with Grade of Toxicity: Nausea Grade 1” value (“No. of Patients … Nausea Grade 1” below) [4, 6] was 1, the “No. of Patients with DLT (Table 10)” value [4, 7] was 1 and the “No. of Patients … Anorexia Grade 1” value [4, 7] was 1. For the same substance, the “No. of Patients with Grade of Toxicity: Anorexia Grade 2” value [4, 7] was 1, the “No. of Patients … Fatigue Grade 1” value [4, 7] was 1 and the “No. of Patients with Grade of Toxicity: Fatigue Grade 2” value (“No. of Patients … Fatigue Grade 2” below) [4, 7] was 1. For the same substance, the “No. of Patients with Grade of Toxicity: Fatigue Grade 3 (*DLT)” value [4, 7] was 1*, the “No. of Patients with Grade of Toxicity: Nausea Grade 2” value [4, 7] was 1 and the “No. of Patients with Grade of Toxicity: Neutropenia Grade 3” value [4, 7] was 1. The “No. of Patients … Anorexia Grade 1” value [4, 8] was 2, the “No. of Patients … Fatigue Grade 1” value [4, 8] was 3 and the “No. of Patients … Fatigue Grade 2” value [4, 8] was 2. The “No. of Patients … Nausea Grade 1” value [4, 8] was 3, the “No. of Patients with DLT (Table 11)” value [4, 9] was 2 and the “No. of Patients with Grade of Toxicity: Anemia Grade 2” value [4, 9] was 2. For the same substance, the “No. of Patients with Grade of Toxicity: Anorexia Grade 2” value [4, 9] was 1, the “No. of Patients with Grade of Toxicity: Bilirubin Grade 2” value [4, 9] was 1 and the “No. of Patients with Grade of Toxicity: Bilirubin Grade 4 (*DLT)” value [4, 9] was 1*. For the same substance, the “No. of Patients … Fatigue Grade 1” value [4, 9] was 3, the “No. of Patients … Fatigue Grade 2” value [4, 9] was 1 and the “No. of Patients … Nausea Grade 1” value [4, 9] was 3. The “No. of Patients with Grade of Toxicity: Neutropenia Grade 2” value [4, 9] was 1, the “No. of Patients with Grade of Toxicity: Rash Grade 2” value [4, 9] was 1 and the “No. of Patients with Grade of Toxicity: Transaminases Grade 2” value [4, 9] was 1. For the same substance, the “No. of Patients with Grade of Toxicity: Transaminases Grade 4 (*DLT)” value [4, 9] was 2*, the Hematologic toxicity ([4]; doses 18.5 to 222 mg/m^2/day) was “mild” and the “Number of DLTs observed” value ([4]; doses 18.5 to 222 mg/m^2/day) was “Three DLTs were observed in 25 patients assessable for toxicity”. For the same substance, the “Other serious toxicities: Gr 3 non-neutropenic infection” value ([4]; doses 18.5 to 222 mg/m^2/day) was 2 patients, the “Other serious toxicities: bowel obstruction” value ([4]; doses 18.5 to 222 mg/m^2/day) was 1 patient and the “common (Gr 1-2) non-hematologic toxicities: anorexia” value ([4]; doses 18.5 to 222 mg/m^2/day) was 42%. The “common (Gr 1-2) non-hematologic toxicities: fatigue” value ([4]; doses 18.5 to 222 mg/m^2/day) was 69%, the “common (Gr 1-2) non-hematologic toxicities: nausea” value ([4]; doses 18.5 to 222 mg/m^2/day) was 38% and the “Tumour response: stable disease” value ([4]; patients with advanced cancer, after 2 cycles) was “Four patients had stable disease (SD) after 2 cycles”.
